{"source": "patent US12121561B1", "about": "“Composition for treating or preventing insulin resistance” (KING FAISAL UNIVERSITY, priority 2024, dated 2024)", "key": {"[1]": {"test_system": "NO production", "experiment": "NO production with recombinant vWF protein"}, "[2]": {"test_system": "glucose uptake", "experiment": "Glucose uptake with recombinant vWF protein"}}}
{"substance": "recombinant vWF protein: a recombinant vWF protein with a specific vWF sequence (SEQ ID NO: 1) (EPECNDITARLQYVKVGSCKSEVEVDIHYCQGKCASKAMYSIDINDVQDQCSC; listed as Homo sp.)", "values": [{"measurement": "NO production", "setting": "[1]", "result": "significantly inhibit"}, {"measurement": "glucose uptake", "setting": "[2]", "result": "significantly inhibit"}]}
